Experimental data from patent US8946266B2, “Substituted triazole and imidazole derivatives as gamma secretase modulators” (Janssen Pharmaceuticals, Inc., priority 2009, dated 2015).
Like-named read-outs stand apart in the source and are kept apart here.

Tests used:
[1] = test system: Aβ42; assay: γ-secretase-modulating activity, Method 2: Aβ42 Alphalisa in supernatant of SKNBE2 cells carrying APP 695-wild type (Table 3b); assay type: cell-based; conditions: overnight
Outline: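 SKNBE2 cells expressing wild-type APP695 were incubated overnight at 37° C. with test compound. Secreted Aβ42 was then measured by AlphaLISA, using a C-terminal Aβ42 antibody paired with an N-terminal Aβ antibody. IC50 came from a 4-parameter fit of percent of compound-free control.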

[2] = test system: Aβtotal; assay: γ-secretase-modulating activity, Method 2: Aβtotal Alphalisa in supernatant of SKNBE2 cells carrying APP 695-wild type (Table 3b); assay type: cell-based; conditions: overnight, read-out: IC50 Aβtot
Outline: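 SKNBE2 cells expressing wild-type APP 695 were incubated overnight at 37 °C, 5% CO2 with test compound at a range of concentrations. Aβtotal in supernatant was measured by AlphaLISA sandwich (N-terminal JRF/AβN/25 acceptor, biotinylated mid-region 4G8 donor); IC50 from 4-parameter fit of percent control versus log concentration.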

[3] = test system: Aβ42; assay: In vivo efficacy, Method 2: brain soluble Aβ42 lowering 4 h after a single oral dose, ELISA (Table 4b); set-up: species or system mouse; conditions: dose 30 mg/kg oral dosing
Source text: (§1) To determine whether acute administration of an Aβ42 lowering agent would reduce Aβ42 levels in vivo, non-transgenic rodents, e.g. mice or rats were used. Animals treated with the Aβ42 lowering agent were examined and compared to those untreated or treated with vehicle and brain levels of soluble Aβ42 and total Aβ were quantitated by standard techniques, for example, using ELISA. Treatment periods varied from hours (h) to days and were adjusted based on the results of the Aβ42 lowering once a time course of onset of effect could be established.
(§2) A typical protocol for measuring Aβ42 lowering in vivo is shown but it is only one of many variations that could be used to optimize the levels of detectable Aβ. For example, Aβ42 lowering compounds were formulated in 20% of Captisol® (a sulfobutyl ether of β-cyclodextrin) in water or 20% hydroxypropyl β cyclodextrin. The Aβ42 lowering agents were administered as a single oral dose or by any acceptable route of administration to overnight fasted animals. After 4 h, the animals were sacrificed and Aβ42 levels were analysed.
(§3) Blood was collected by decapitation and exsanguinations in EDTA-treated collection tubes. Blood was centrifuged at 1900 g for 10 minutes (min) at 4° C. and the plasma recovered and flash frozen for later analysis. The brain was removed from the cranium and hindbrain. The cerebellum was removed and the left and right hemisphere were separated. The left hemisphere was stored at −18° C. for quantitative analysis of test compound levels. The right hemisphere was rinsed with phosphate-buffered saline (PBS) buffer and immediately frozen on dry ice and stored at −80° C. until homogenization for biochemical assays.
(§4) Mouse brains from non-transgenic animals were resuspended in 8 volumes of 0.4% DEA (diethylamine)/50 mM NaCl containing protease inhibitors (Roche-11873580001 or 04693159001) per gram of tissue, e.g. for 0.158 g brain, add 1.264 ml of 0.4% DEA. All samples were homogenized in the FastPrep-24 system (MP Biomedicals) using lysing matrix D (MPBio #6913-100) at 6 m/s for 20 seconds. Homogenates were centrifuged at 221.300×g for 50 min. The resulting high speed supernatants were then transferred to fresh eppendorf tubes. Nine parts of supernatant were neutralized with 1 part 0.5 M Tris-HCl pH 6.8 and used to quantify Aβtotal and Aβ42.
(§5) To quantify the amount of Aβtotal and Aβ42 in the soluble fraction of the brain homogenates, Enzyme-Linked-Immunosorbent-Assays were used. Briefly, the standards (a dilution of synthetic Aβ1-40 and Aβ1-42, Bachem) were prepared in 1.5 ml Eppendorf tube in Ultraculture, with final concentrations ranging from 10000 to 0.3 pg/ml. The samples and standards were co-incubated with HRPO-labelled N-terminal antibody for Aβ42 detection and with the biotinylated mid-domain antibody 4G8 for Aβtotal detection. 50 μl of conjugate/sample or conjugate/standards mixtures were then added to the antibody-coated plate (the capture antibodies selectively recognize the C-terminal end of Aβ42, antibody JRF/cAβ42/26, for Aβ42 detection and the N-terminus of Aβ, antibody JRF/rAβ/2, for Aβtotal detection). The plate was allowed to incubate overnight at 4° C. in order to allow formation of the antibody-amyloid complex. Following this incubation and subsequent wash steps the ELISA for Aβ42 quantification was finished by addition of Quanta Blu fluorogenic peroxidase substrate according to the manufacturer's instructions (Pierce Corp., Rockford, Ill.). A reading was performed after 10 to 15 min (excitation 320/emission 420).
In this model at least 20% Aβ42 lowering compared to untreated animals would be advantageous.
(§6) The results are shown in Table 4b (dose 30 mg/kg oral dosing): […]

[4] = test system: Aβtotal; assay: In vivo efficacy, Method 2: brain soluble Aβtotal lowering 4 h after a single oral dose, ELISA (Table 4b); set-up: species or system mouse; conditions: dose 30 mg/kg oral dosing
Source text: as §1, §2, §3, §4, §5
For Aβtotal detection, a Streptavidine-Peroxidase-Conjugate was added, followed 60 min later by an additional wash step and addition of Quanta Blu fluorogenic peroxidase substrate according to the manufacturer's instructions (Pierce Corp., Rockford, Ill.). A reading was performed after 10 to 15 min (excitation 320 nm/emission 420 nm).
as §6

SMILES	IC50 [1] [nM]	IC50 [2] [nM]	Aβ42 (% Ctrl) _Mean [3] [% Ctrl]	Aβtotal (% Ctrl) _Mean [4] [% Ctrl]	IC50 ([1]; Homo sapiens) [nM]	IC50 ([2]; Homo sapiens) [nM]
COc1nc(-c2nc(N3CCCC(c4ccccc4)C3)n(C(C)C)n2)ccc1-n1cnc(C)c1.Cl (racemic) [Compound 80]	56	10000	−20	−19	–	–
COc1cc(-c2nc(Nc3cc([S+](C)[O-])ccc3F)n(C)n2)ccc1-n1cnc(C)c1 (racemic) [Compound 330]	603	68	−9	−2	–	–
COc1cc(-c2nc(Nc3ccccc3C(C)C)n(C)n2)ccc1-n1cnc(C)c1 [Compound 99]	19	> 10000	58	−2	–	–
COc1nc(-c2nc(Nc3cccc(Cl)c3)n(C)n2)ccc1-n1cnc(C)c1 [Compound 100]	28	> 10000	12	−4	–	–
COc1cc(-c2nc(Nc3ccccc3F)n(C)n2)ccc1-n1cnc(C)c1 [Compound 105]	132	> 10000	24	−7	–	–
COc1cc(-c2nc(Nc3cc(Cl)ccc3Cl)n(C)n2)ccc1-n1cnc(C)c1 [Compound 111]	13	> 10000	33	15	–	–
COc1cc(-c2nc(Nc3cccc(F)c3Cl)n(C)n2)ccc1-n1cnc(C)c1 [Compound 114]	56	> 10000	53	9	–	–
COc1nc(-c2nc(Nc3cc(Cl)ccc3F)n(C)n2)ccc1-n1cnc(C)c1 [Compound 117]	60	> 10000	44	17	–	–
COc1cc(-c2nc(Nc3cc(Cl)ccc3F)n(C)n2)ccc1-n1cnc(C)c1 [Compound 123]	58	> 10000	36	31	–	–
COc1cc(-c2nc(Nc3c(F)cccc3Cl)n(C)n2)ccc1-n1cnc(C)c1 [Compound 125]	85	> 10000	2	11	–	–
COc1cc(-c2nc3n(n2)CCOC3c2cc(OC(F)(F)F)ccc2F)ccc1-n1cnc(C)c1 (centres unmarked) [Compound 128]	28	> 10000	47	24	–	–
COc1cc(-c2nc(Nc3cccc(Cl)c3C)n(C)n2)ccc1-n1cnc(C)c1 [Compound 129]	25	> 10000	56	9	–	–
COc1nc(-c2nc(Nc3ccccc3C(F)(F)F)n(C)n2)ccc1-n1cnc(C)c1 [Compound 132]	135	> 10000	39	−1	–	–
COc1cc(-c2nc(Nc3cc(C(F)(F)F)ccc3F)n(CC(C)(C)O)n2)ccc1-n1cnc(C)c1 [Compound 136]	76	3020	−14	1	–	–
COc1nc(-c2nc(Nc3cccc(F)c3C(F)(F)F)n(C)n2)ccc1-n1cnc(C)c1 [Compound 138]	50	> 10000	46	17	–	–
COc1cc(-c2nc(Nc3cc(C(F)(F)F)cc(F)c3F)n(C)n2)ccc1-n1cnc(C)c1 [Compound 140]	20	> 10000	33	8	–	–
COc1cc(-c2nc(Nc3cc(C(F)(F)F)ccc3C(F)(F)F)n(C)n2)ccc1-n1cnc(C)c1 [Compound 144]	9	> 10000	38	9	–	–
COc1cc(-c2nc(Nc3cccc(C(F)(F)F)c3F)n(C)n2)ccc1-n1cnc(C)c1 [Compound 148]	23	> 10000	37	12	–	–
COc1cc(-c2nc(Nc3cc(C(F)(F)F)cc(C(F)(F)F)c3)n(C)n2)ccc1-n1cnc(C)c1 [Compound 150]	13	> 10000	−6	−8	–	–
COc1cc(-c2nc(Nc3ccc(F)c(C(F)(F)F)c3)n(C)n2)ccc1-n1cnc(C)c1 [Compound 152]	19	> 10000	10	−9	–	–
COc1cc(-c2nc3n(n2)CCOC3c2cccc(F)c2C)ccc1-n1cnc(C)c1 (centres unmarked) [Compound 345]	107	> 10000	–	–	–	–
COc1cc(-c2nc3n(n2)CCOC3c2ccccc2OC(F)(F)F)ccc1-n1cnc(C)c1 (centres unmarked) [Compound 346]	95	> 10000	–	–	–	–
COc1nc(-c2nc3n(n2)CCOC3c2cccc(F)c2C)ccc1-n1cnc(C)c1 (centres unmarked) [Compound 347]	126	> 10000	–	–	–	–
COc1nc(-c2nc3n(n2)CCOC3c2ccccc2OC(F)(F)F)ccc1-n1cnc(C)c1 (centres unmarked) [Compound 348]	79	> 10000	–	–	–	–
COc1cc(-c2nc(N3CCCc4ccccc43)n(C)n2)ccc1-n1cnc(C)c1 [Compound 349]	257	> 10000	–	–	–	–
COc1cc(-c2nc(Nc3cc(C(F)(F)F)ccc3F)n(C)n2)ccc1-n1ccnc1 [Compound 359]	–	–	–	–	95	> 10000
COc1nc(-c2nc3n(n2)CCC[C@H]3c2ccc(F)cc2C)ccc1-n1cnc(C)c1 [Compound 361]	42	–	32	−8	–	–
